Laboratory results taken from paper PMC9416257, “Design, Synthesis and Preliminary Evaluation of the Cytotoxicity and Antibacterial Activity of Novel Triphenylphosphonium Derivatives of Betulin” (Molecules, 2022).
Like-named read-outs stand apart in the source and are kept apart here.

Columns and labels:
[1] = tested on: S. aureus ATCC 25923; assay: Antibacterial assay, optical density of culture in TSB; assay type: cell-based, Staphylococcus aureus; details: 37 °C, 18 h
Description: (§1) Investigations were carried out using different concentrations of solutions from 25 to 250 µM. A 25 µM concentration of the tested derivatives was not enough to inhibit the growth of […]. When the concentration of analogs 7d–7f and 9a–9c increased to 200 µM, the growth of S. aureus ATCC 25923 and S. epidermidis ATCC 12228 was inhibited. Furthermore, the optical density of all compounds remained unchanged after 18 h of bacteria culture. In the case of analogs 7a–7c, the optical density values were between 0.9 and 2.2 when they were cultured with S. aureus ATCC 25923. The bacterial growth was slower compared to the control sample (TSB-culture medium). […] In the case of analog 7c, the optical density increased up to […] after 18 h of the sample culture with both kinds of Gram-positive bacteria. In contrast, the reference sample’s (TSB) optical density increased to 7.5 for S. aureus ATCC 25923, and 4.9 for S. epidermidis ATCC 12228 after 18 h of bacteria culture. […] All of the analog values of the measured optical density were similar to that of the reference sample (5.0–5.1, Table 3).
(§2) Antibacterial analysis was performed using the S. aureus ATCC 25923, S. epidermidis ATCC 12228, and Escherichia coli ATCC 25922 bacteria strains. The test compounds were dissolved in DMSO to obtain a stock solution with a concentration of 5 mM (betulin) or 10 mM (other test compounds). The stock solution was diluted with water to the desired concentration (25–250 µM). Then, 1 mL of the investigated solutions was mixed with 1 mL of culture medium (TSB, Biomaxima, Lublin, Poland) in a sterile glass tube. The initial concentration of bacteria was around 5 × 10^6 CFU/mL. The concentration of bacteria was measured using an optical densitometer before and after 18 h of bacteria culture in glass tubes at 37 °C (incubator POL-EKO, Wodzislaw Slaski, Poland). The investigations were repeated for three independent samples. The control sample was the culture medium without any supplementation.

[2] = tested on: HCT 116 (colorectal carcinoma cell line); assay: Cytotoxicity, CCK-8 cell viability assay; assay type: cell-based; details: Homo sapiens, read-out: Activity IC50, HCT 116
Description: (§3) The obtained new molecular hybrids of BN were screened in order to initially investigate their cytotoxicity as well as examine the relationships between the structure and biological effect. The common element of all of the tested compounds was the presence of a lipophilic moiety (CH2)nTPP^⊕ (n = 3, 4, 5). The research was conducted on two groups of compounds: 28-TPP^⊕ BN and 3,28-bisTPP^⊕ BN. Their cytotoxicity was investigated on two cancer cell lines: HCT 116 (colorectal carcinoma cell line) and MCF-7 (human breast adenocarcinoma cell line). The proliferation of tumor cells treated with the tested compounds (7 and 9) at 12.5–3.125 µM concentrations were determined after 24 h of incubation. Additionally, all compounds were tested against the NHDF cell line (Normal Human Dermal Fibroblast cells) to assess their safety. Half-maximal inhibitory concentrations (IC50) of triphenylphosphonium analogs of BN were determined using a CCK-8 assay and are summarized in Table 2.
(§4) The human colorectal carcinoma cell line (HCT 116) and the human breast adenocarcinoma cell line (MCF-7) cells were purchased from the American Type Culture Collection (ATCC, Manassas, VA, USA). The Normal Human Dermal Fibroblast (NHDF) cells were purchased from Lonza (Dermal Fibroblasts, Lonza, Poland). All cells were cultured under standard conditions at 37 °C in a humidified atmosphere at 5% CO2 in DMEM/F12 medium (PAA) supplemented with 10% of heat-inactivated fetal bovine serum (FBS, EURx, Gdansk, Poland) and antibiotics (penicillin/streptomycin).
(§5) Cells were seeded at 7500 (HCT 116) or 10,000 (MCF-7, NHDF) cells/well in 96-well plates. After 24 h, the culture medium was removed and 100 µL of fresh medium containing the test compounds at 0–12.5 µM concentrations was added to the culture wells. The test compounds were dissolved in DMSO to obtain a stock solution with a concentration of 5 mM (betulin) or 10 mM (other test compounds). The stock solution was diluted with the fresh culture medium to the desired concentration. Controls were cells grown in medium without the addition of test compounds. After 24 h of incubation with the test compounds, 10 µL of CCK-8 reagent (Bimake, Houston, TX, USA) was added to each well. After 2 h, the absorbance of the samples was measured at a wavelength of 450 nm using a microplate reader (Epoch, BioTek Instruments, Winooski, VT, USA). The determinations were conducted in at least three biological replications (each biological replication contained 3 technical replications). The cell viability rate was calculated using CalcuSyn software (version 2.0, Biosoft, Cambridge, UK).

[3] = tested on: S. epidermidis ATCC 12228; assay: Antibacterial assay, optical density of culture in TSB; assay type: cell-based, Staphylococcus epidermidis; details: 37 °C, 18 h
Description: as §1, §2

[4] = tested on: NHDF (Normal Human Dermal Fibroblast cells); assay: Cytotoxicity, CCK-8 cell viability assay (safety on normal cells); assay type: cell-based; details: read-out: Activity IC50, NHDF
Description: as §3, §4, §5

[5] = tested on: MCF-7 (human breast adenocarcinoma cell line); assay: Cytotoxicity, CCK-8 cell viability assay; assay type: cell-based; details: read-out: Activity IC50, MCF-7
Description: as §3, §4
as §5, with “After 24 h, the culture medium was removed and 100 µL of fresh medium containing the test compounds at 0–12.5 µM concentrations was added to the culture wells.” left out

[6] = tested on: Escherichia coli ATCC 25922; assay: Antibacterial assay, optical density of culture in TSB; assay type: cell-based; details: 37 °C, 18 h; also: key: 0: no difference between samples after 18 h of bacteria culture (bacteria grow was inhibited); neg: negative results (analog BN did not inhibit bacteria growing)
Description: as §1, §2

Compound	Difference between optical density before and after culture, S. aureus ATCC 25923 ([1]; 200 μM)	Difference between optical density before and after culture, S. aureus ATCC 25923 ([1]; 250 μM)	IC50 ([2]; HCT-116, 24 h)	Difference between optical density before and after culture, S. epidermidis ATCC 12228 ([3]; 200 μM)	Difference between optical density before and after culture, S. epidermidis ATCC 12228 ([3]; 250 μM)	IC50 ([4]; 24 h)	IC50 ([5]; MCF7, 24 h)	Difference between optical density before and after culture, Escherichia coli ATCC 25922 ([6]; 200 μM)	Difference between optical density before and after culture, Escherichia coli ATCC 25922 ([6]; 250 μM)	IC50 ([2]; HCT-116, CCK-8 assay, incubation time 24 h, mean ± SD (n = 3))	IC50 ([4]; CCK-8 assay, incubation time 24 h, mean ± SD (n = 3))	IC50 ([5]; MCF7, CCK-8 assay, incubation time 24 h, mean ± SD (n = 3))
C=C(C)[C@@H]1CC[C@]2(COC(=O)CCC(=O)OCCC[P+](c3ccccc3)(c3ccccc3)c3ccccc3)CC[C@]3(C)C(CCC4[C@@]5(C)CC[C@H](OC(=O)CCC(=O)OCCC[P+](c6ccccc6)(c6ccccc6)c6ccccc6)C(C)(C)C5CC[C@]43C)C12 (stereo partly drawn) [9a, 3,28-O,O′-Bis(3’-(3"-triphenylphosphoniopropyloxycarbonyl)propanoyl)betulin bromide]	0	0	6.32 ± 0.27 µM	0	0	5.91 ± 0.33 µM	31.3 ± 3.02 µM	neg	neg	–	–	–
C=C(C)[C@@H]1CC[C@]2(COC(=O)CCC(=O)OCCCC[P+](c3ccccc3)(c3ccccc3)c3ccccc3)CC[C@]3(C)C(CCC4[C@@]5(C)CC[C@H](OC(=O)CCC(=O)OCCCC[P+](c6ccccc6)(c6ccccc6)c6ccccc6)C(C)(C)C5CC[C@]43C)C12 (stereo partly drawn) [9b, 3,28-O,O’-Bis(3’-(4"-triphenylphosphoniobutyloxycarbonyl)propanoyl)betulin bromide]	0	0	7.97 ± 0.51 µM	0	0	8.02 ± 0.35 µM	23.6 ± 0.33 µM	neg	neg	–	–	–
C=C(C)[C@@H]1CC[C@]2(COC(=O)CCC(=O)OCCCCC[P+](c3ccccc3)(c3ccccc3)c3ccccc3)CC[C@]3(C)C(CCC4[C@@]5(C)CC[C@H](OC(=O)CCC(=O)OCCCCC[P+](c6ccccc6)(c6ccccc6)c6ccccc6)C(C)(C)C5CC[C@]43C)C12 (stereo partly drawn) [9c, 3,28-O,O′-Bis(3’-(5"-triphenylphosphoniopentyloxycarbonyl)propanoyl)betulin bromide]	0	0	19 ± 0.51 µM	0	0	10.6 ± 0.34 µM	53.3 ± 5.41 µM	neg	neg	–	–	–
C=C(C)[C@@H]1CC[C@]2(CO)CC[C@]3(C)[C@H](CC[C@@H]4[C@@]5(C)CC[C@H](O)C(C)(C)[C@@H]5CC[C@]43C)[C@@H]12 [BN, 3-lup-20(29)-ene-3,28-diol, reference compound]	5.1 McFarland’s scale (CFU/mL)	5.6 McFarland’s scale (CFU/mL)	–	neg	4.7 McFarland’s scale (CFU/mL)	–	–	neg	neg	> 12.5 µM	> 12.5 µM	> 12.5 µM
